Measurements taken from patent US8389544B2, “Isoquinolone compounds as subtype-selective agonists for melatonin receptors MT1 and MT2” (The Hong Kong University of Science and Technology, priority 2007, dated 2013).

How the values were obtained:
Format in all cases: cell-based
Parental 293 = test: MTT cytotoxicity assay, parental 293 cells; settings: percentage of untreated control cells
Method: This assay evaluates the cytotoxic effects of the novel isoquinolone compounds based on the cellular viability under chronic treatments. Viable cells but not dead cells can turn the substrate into a colored product, which yields higher absorbance. […] A low percentage indicates low cytoviability (or high cytotoxicity).
5. Cytotoxicity Test Using MTT Assay
Cells were seeded into clear 96-well plate at an appropriate density in 100 μl growth medium and were allowed to grow overnight. The novel isoquinolone compounds were diluted to desired concentrations using fresh growth medium, and these dilutions were used to replace the growth media in each well. After incubating for 24-96 h, 10 μl of the MTT labeling reagent (Roche) was added to each well and the cells were incubated in a CO2 incubator for 4 h. 100 μl solubilization buffer was then added into each well and incubated overnight for complete solubilization of the purple formazan crystals. […] Each condition was performed in triplicate in every experiment and the results were expressed as % of blank control±SD.

MT2 receptor [1] = target: T1, MT2 receptor (Homo sapiens, UniProt P49286); test: ERK phosphorylation assay, MT2; design: expressed in transfected cells; settings: HEK293 cells; isoquinolone 1 μM or 2-iodomelatonin 100 nM, 5 min; against unstimulated control cells
T1 sequence (P49286 1-362): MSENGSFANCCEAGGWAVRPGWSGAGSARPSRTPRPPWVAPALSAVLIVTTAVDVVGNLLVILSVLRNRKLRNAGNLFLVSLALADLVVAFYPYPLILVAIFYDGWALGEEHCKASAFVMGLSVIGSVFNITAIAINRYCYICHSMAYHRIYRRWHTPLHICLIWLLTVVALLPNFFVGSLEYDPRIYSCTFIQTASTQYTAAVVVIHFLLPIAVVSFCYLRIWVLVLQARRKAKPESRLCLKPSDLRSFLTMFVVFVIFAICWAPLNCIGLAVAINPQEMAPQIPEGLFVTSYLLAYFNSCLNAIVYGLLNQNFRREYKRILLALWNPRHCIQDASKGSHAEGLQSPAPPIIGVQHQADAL
From the text: 3. ERK Phosphorylation Assay This assay indicates the ability of the novel compounds to activate MT1 or MT2 receptors by measuring downstream events of the activated receptor, in this case ERK phosphorylation. The amount of phosphorylated ERK1/2 was detected and quantified in western blots. The data in Table 2 is expressed as the fold stimulation against the unstimulated control cells. 6. Detection of ERK phosphorylation […] Stimulation was terminated by aspiration on ice and immediate lysis by 200 μl of 1× protein gel loading buffer. Lysates were denatured by boiling for 5 min and cooled at room temperature until loading. 30 μl of each lysate was separated on 12% SDS-PAGE and transferred to nitrocellulose membrane by electroblotting. Success of transfer was visualized by Ponceau S staining. All subsequent incubations were under gentle agitation (˜100 strokes/min). […] Primary antisera against phosphorylated- or total-ERK1/2 were incubated with the blocked membrane at an appropriate dilution (1:4000-1:2000) in Blotto for overnight at 4° C. The membrane was washed with fresh Blotto for 3 times of 15 min each, then incubated with secondary antiserum (horseradish peroxidase-conjugated anti-rabbit IgG) at the dilution of 1:1000 in 1×TBS for 1 h at room temperature. The membrane was quickly rinsed with excessive 1×TBS for 3 times, and followed by 4 washes of 1×TBS for 10 min. By the end, a premix of luminol-based chemiluminescence substrate solution was prepared (1 ml for every 8 cm^2 of membrane) and overlaid onto the washed membrane to incubate for 1 min. After removing excessive solution, the membrane was covered with saran wrap and an autograph with appropriate exposure was developed on X-ray film in dark room. The image was scanned and the band intensities quantified using ImageJ 1.34. Data was expressed as the percentage response of the vehicle-treated or untreated samples. Experiments were performed at least 3 times and the average responses±SEM were presented.

MT2 receptor [2] = target: T1, MT2 receptor; test: CRE-Luc (luciferase reporter gene) assay, MT2; design: expressed in transfected cells; settings: HEK 293-pCREluc cells with MT2; inhibition of forskolin response
Method: The luciferase reporter gene assay offers another way to measure melatonin receptor activation. Cells expressing cAMP-responsive element-driven luciferase reporter gene (293-pCREluc) and either the MT1 or MT2 receptor are treated with forskolin (a substance which stimulates cAMP production as well as the subsequent luciferase gene expression) alone or with a novel isoquinolone compound. As melatonin receptor activation inhibits cAMP production, any suppression in the expression of luciferase leads to a decrease in enzymatic activities and a reduction in the amount of luminescence signal generated.
The luciferase assay, a reporter gene assay, was performed to confirm the ability of the invention to activate the melatonin receptors. Prior to the assay, HEK (human embryonic kidney) 293 cells are stably transfected with cAMP-responsive element-driven luciferase reporter gene (293-pCREluc) and cDNAs encoding MT1 or MT2 receptors. The cells are then exposed to the novel isoquinolone compounds, after which the substrate luciferin is added and the resulting luminescence measured.
Prior to the assay human embryonic kidney (HEK) 293 cells (CRL-1573, ATCC) is maintained at 37° C. in minimum essential medium (MEM) supplemented with 10% fetal bovine serum (FBS), 100 units/ml penicillin and 100 μg/ml streptomycin in a humidified atmosphere containing 5% CO2. Human embryonic kidney 293 cells stably transfected with cAMP-responsive element-driven luciferase reporter gene (293-pCREluc) are established and maintained in growth medium supplemented with 300 μg/ml G418 sulphate.
For luciferase assays, HEK-293 cells stably expressing pCRE-luciferase are seeded at a density of 15,000 cells/well into 96 well plates. Transfection is carried out using Lipofectamine Plus® reagent at 0.2 μl of both Plus and lipofectamine reagents with 50 ng cDNAs encoding MT1 or MT2 receptors per well. After a 3 hour transfection period at 37° C., 50 μl of DMEM with 20% fetal calf serum (FCS) is added into the wells and the plate is incubated at 37° C. for 48 h prior to 24 hour serum starvation. […]
Cells are harvested by replacing medium in the well by 50 μl luciferase lysis buffer. The Berthold microplate luminometer is maintained at 25° C. throughout the assay. Injector M connected to an empty tube and P connected to the drug tube are set to inject 25 μl of luciferin into appropriate wells. A 1.6 second delay time followed by a 1 second measuring time period is assigned to injector M, whereas injector P is measured for 10 seconds after luciferase substrate is introduced into the well. Results are expressed as relative luminescent units (RLU). Where indicated, agonist-induced activity is expressed as a percentage of the RLU obtained with forskolin.

Row | Compound | MTT Assay Parental 293 % Viability ± SEM (Parental 293) | ERK Phosphorylation MT2 Fold Stim. (MT2 receptor [1]) | CRE-Luc Assay MT2 % Inh ± SEM of 1 μM Fsk (MT2 receptor [2])
1 | COc1cccc(COc2cc3c(=O)n(C)ccc3cc2OC)c1 [IS521] | 66.1 ± 4.9% | 3.01 Fold | 70.2 ± 9.2%
2 | COc1cccc(COc2cc3ccn(C)c(=O)c3cc2OC)c1 [IS044] | 78.6 ± 5.8% | 3.50 Fold | 73.9 ± 12.4%
3 | COc1cc(COc2cc3c(=O)n(C)ccc3cc2OC)cc(OC)c1 [IS523] | 37.5 ± 0.9% | 2.07 Fold | 71.6 ± 16.3%
4 | COc1cc2ccn(C)c(=O)c2cc1OCc1ccc(C(C)(C)C)cc1 [IS526] | 27.5 ± 18.9% | – | 17.8 ± 4.7%
5 | COc1cccc(COc2c(OC)ccc3c(=O)n(C)ccc23)c1 [IS527] | 36.8 ± 0.0% | 2.21 Fold | 61.0 ± 9.3%
6 | COc1ccc2c(=O)n(C)ccc2c1OCc1ccc(C)cc1 [IS529] | 35.9 ± 0.4% | 1.23 Fold | 61.3 ± 13.1%
7 | Cn1ccc2cc(OC(=O)c3ccccc3)c(OC(=O)c3ccccc3)cc2c1=O [IS039] | 104.9 ± 4.8% | 1.98 Fold | 69.8 ± 7.2%
8 | COc1cc(COc2cc3ccn(C)c(=O)c3cc2OC)cc(OC)c1 [IS042] | 60.7 ± 0.4% | 5.59 Fold | 71.3 ± 8.8%
9 | COc1cc(COc2c(OC)ccc3c(=O)n(C)ccc23)cc(OC)c1 [IS528] | 32.2 ± 2.3% | 1.71 Fold | 60.8 ± 8.5%
